Reference: paper PMC10388363, “Novel 1,4-Dihydropyridines as Specific Binders and Activators of SIRT3 Impair Cell Viability and Clonogenicity and Downregulate Hypoxia-Induced Targets in Cancer Cells” (Journal of Medicinal Chemistry, 2023)

Columns and labels:
human SIRT3 [1] = target: T1, human SIRT3 (Homo sapiens, UniProt Q9NTG7); assay: Surface plasmon resonance binding assay, immobilized SIRT3; conditions: SPR, Scatchard analysis, analytes 5-80 μM
T1 construct: pET151D/Topo (Sirt3-114-380 and Sirt5-34-302); His tag (N, cleaved yes); made in house; host or cells: Escherichia coli
T1 sequence (Q9NTG7 114-380): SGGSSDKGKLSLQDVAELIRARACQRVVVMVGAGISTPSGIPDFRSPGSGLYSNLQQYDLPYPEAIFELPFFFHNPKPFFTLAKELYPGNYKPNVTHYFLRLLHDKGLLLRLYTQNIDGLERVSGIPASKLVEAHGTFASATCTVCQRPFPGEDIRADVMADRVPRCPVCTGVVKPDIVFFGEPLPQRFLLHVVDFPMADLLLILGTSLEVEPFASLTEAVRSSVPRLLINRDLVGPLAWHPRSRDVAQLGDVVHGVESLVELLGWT
Procedure: Next, surface plasmon resonance (SPR) experiments were conducted with selected SIRT3 activators 2e and 3a–d to ascertain their biophysical interaction with the human SIRT3 protein. Their parental compounds 2 and 3, together with honokiol, were used as positive controls. The experiments were carried out twice at different concentrations (5, 10, 20, 40, and 80 μM), by injecting the compounds at increasing doses (Figure 5). The resonance units (RU) increase with respect to baseline indicates the formation of the SIRT3/ligand complex, the plateau region represents the steady-state phase of the interaction (RUeq, RU at equilibrium) and the decrease in RU after 180 s represents dissociation of analytes from the immobilized SIRT3 protein after injection of the buffer.
SPR experiments were carried out using a SensiQ Pioneer system (SensiQ, Oklahoma City, OK, USA), essentially as in Genovese et al. 2020[84] and in Battista et al. 2021,[85] with some modifications, as follows.
The sensor chip (COOH5) was chemically activated by a 35 μL injection of a 1:1 mixture of […] (200 mM) and N-hydroxysuccinimide (50 mM) at a flow rate of 5 μL/min. Sirtuin3 (ligand) was immobilized on activated sensor chips via amine coupling. Immobilization was carried out in 20 mM sodium acetate at pH 4.0; unreacted groups were blocked by injecting 1 M ethanolamine hydrochloride (35 μL). Sirtuin3 immobilization level obtained was 1500–4000 RU.
The analytes, dissolved in 100% DMSO at 10 mM concentration, were diluted in buffer 20 mM Hepes, 150 mM NaCl, 0.005% surfactant P20 buffer (HBSP) to a concentration of 200 μM (2% final DMSO concentration), further diluted in HBSP + 2% DMSO (HBSP2%D) and injected on the sensor chip at a constant flow rate (nominal flow rate = 30 μL/min) at the following concentrations: 5, 10, 20, 40, and 80 μM.
The RU increase relative to baseline indicates complex formation (taking place at known analytes concentrations at each moment in the gradient); the plateau region represents the steady-state phase of the interaction (RUeq); and the decrease in RU after 180 s represents dissociation of analytes from the immobilized Sirtiun3 after injection of HBSP2%D. Regeneration procedures are based on two long (2000 and 500 s) injections of buffer, separated by a brief (5 s) injection of 10 mM NaOH.
Control experiments were performed in sensor chips treated as described above in the absence of an immobilized ligand. Kinetic evaluation of the sensorgrams was obtained using the SensiQ Qdat program and full fitting with 1, 2, and 3 sites; Scatchard analysis was used to determine apparent KD values.

human SIRT3 [2] = target: T1, human SIRT3; assay: PncA/GDH-coupled deacylation assay, SIRT3 activation (ACS2-acK642 substrate); type: biochemical; conditions: 100 μM, 387% vs 269%
Procedure: To avoid artifacts and other non-specific effects, instead of the “Fluor-de-Lys” (FdL) substrate, we used a PncA/GDH-coupled deacylation assay by measuring the NADPH oxidation to NADP^+ that relies on isoform-specific non-modified physiological acetyl or succinyl substrates [p53-acK381 for SIRT1, α-tubulin-[…] for SIRT2, acetyl-CoA synthetase 2 (ACS2)-acK642 for SIRT3, and CPS1-succK537 for SIRT5].[59] The assays were carried out using the 1,4-DHP derivatives 2a–n and 3a–d against SIRT3, including the prototype compounds 2 and 3 as positive controls.
N-terminally his-tagged human sirtuins were expressed in Escherichia coli using constructs in pET15b (Sirt1) or pET151D/Topo (Sirt3-114-380 and Sirt5-34-302).[4],[59],[61] Sirt2-43-356 was expressed from a modified pET19b containing a TEV protease cleavage site and an N-terminal SUMO-tag.[59],[79] Proteins were expressed and purified as described elsewhere.[59],[61],[79]−[81] In brief, proteins were expressed in E. coli, crude extracts were cleared by centrifugation, and the proteins were affinity purified using NiNTA beads.
Sirtuin deacylation activities were analyzed by using a coupled enzymatic assay as described in.[59],[82] […]

MDA-MB-231 cells = assay: Clonogenic assay, MDA-MB-231; type: cell-based, human; conditions: for reduction of clonogenicity: MDA-MB-231, 50 μM, 48 h
Procedure: Afterward, the selected compounds 3a–d were assayed at 50 μM for 24 and 48 h in CAL-62 and MDA-MB-231 cells to assess their ability to impair the cell viability and colony formation in either normoxia or hypoxia-induced condition, the latter obtained by adding a 200 μM cobalt chloride solution, as described in previous reports[69] (Figure 8). Most cancer cells, mainly solid types, are known to have an altered metabolism due to hypoxia, a non-physiological level of oxygen tension, which contributes to therapy resistance by causing cellular quiescence.[70] Moreover, hypoxic cancer cells can induce several factors that lead to cell proliferation and colony formation.[71]
Cells were seeded in a 100 mm dish and, once at 80–90% confluence, treated as described in the Results and Discussion section. After 24 and 48 h, cells were collected, counted, and 500 cells plated in a 100 mm dish. After about 7 days for CAL62 and 10 days for MDA-MB-231, plates were washed with phosphate-buffered saline solution (PBS); (Merck; 79382), and clones were fixed with 4% formaldehyde solution in PBS (Merck; F8775) at room temperature for 15 min. After that, the dishes were washed with PBS, and clones stained for 5 min with 0.5% crystal violet (Merck; C0775). Finally, the plates were washed with distilled water and air-dried. After scanning each individual dish, the colonies were counted the following day.

| Kd (human SIRT3 [1]) | SIRT3 activation potency relative to reference 3 (human SIRT3 [2]) | Compound | IC50 (MDA-MB-231 cells; Homo sapiens, MDA-MB-231, 48 h, normoxia, read-out: IC50 against colonies formation) | reduction of clonogenicity (MDA-MB-231 cells; hypoxia) | reduction of clonogenicity (MDA-MB-231 cells; normoxia) |
| --- | --- | --- | --- | --- | --- |
| 29 µM | 1.4 fold | CCOC(=O)C1=CN(C(=O)c2ccc(OC)c(OC)c2)C=C(C(=O)OCC)C1c1ccccc1 [Compound 3c, Diethyl 1-(3,4-dimethoxybenzoyl)-4-phenyl-1,4-dihydropyridine-3,5-dicarboxylate] |  |  |  |
|  |  | CCOC(=O)C1=CN(C(=O)c2cc(OC)cc(OC)c2)C=C(C(=O)OCC)C1c1ccccc1 [Compound 3d, Diethyl 1-(3,5-dimethoxybenzoyl)-4-phenyl-1,4-dihydropyridine-3,5-dicarboxylate] | ~2.2 µM | 95% | 86% |
